Experimental data from US12036228B2, “Treatment of seizure disorders” (Shackelford Pharma Inc., priority 2022, dated 2024).
Values joined by “and” are separate entries in the source; they are usually repeats but may differ in a detail not shown here. Equal entries are not always repeated.

Key:
Format in all cases: in vivo
[1] = system: GTC seizures in human patient; test: Example 4 human patient, idiopathic GTC seizures
Excerpt: A person's first evaluation for cannabinboid therapy was on Feb. 16, 2010. […] Initially in 2010, the patient was smoking cannabis in the day and taking a THC cannabis extract at night orally.

[2] = system: seizures in human patient; test: Example 3 human patient, GTC and complex partial seizures
Excerpt: A patient first started having GTC and complex partial (CP) seizures. […] The patient was referred for evaluation for initiation of cannabinoid/THC treatment in March 2014.

[3] = system: GTC seizures in human patients; test: THC treatment of several human patients with GTC seizures (responder rate, one-year remission rate, adverse effects); conditions: for Increase in 1 YR Seizure Remission Rate over expected: expected 5%; for THC-related adverse event: one adult patient
Excerpt: Several human patients commenced treatment with THC after a first visit. More details about the treatment are provided below. The group included 82 total adult patients and 12 total pediatric patients. Of those 94 patients, 34 adult patients and 10 pediatric patients had experienced at least one GTC seizure in the year preceding the first visit. At the time of first visit, 14 of the 34 adult patients and 8 of the 10 pediatric patients had never taken THC. At the time of first visit, five of the 34 adult patients and two of the 10 pediatric patients were consistently/regularly taking THC. At the time of first visit, 15 of the 34 adult patients and none of the 10 pediatric patients were inconsistently/irregularly taking THC or had taken THC at some point in the past and were no longer taking THC.
At the time of first visit, 16 of the 34 adult patients had treatment resistant epilepsy, which means the patients had persistent GTC seizures despite taking two different anti-seizure medications at, or prior to, the first visit. At the time of first visit, all 10 of the pediatric patients had treatment resistant epilepsy.
The first visit means the date when the patient first saw the doctor for evaluation for THC treatment for GTC seizures. Responder rates means the percentage of patients that had at least a 50% reduction in GTC seizure frequency over a one-year treatment period with THC. One-year remission rate means the percentage of patients that experienced no GTC seizures in a one-year period after commencing THC treatment.
All of the 34 adult patients and 10 pediatric patients were taking other anti-seizure medications or had other anti-seizure treatment at the time of the first visit. […] Those anti-seizure medications and other anti-seizure treatments included: lamotrigine, topiramate, topiramate XR, vagus nerve stimulation, phenytoin, valproic acid, zonisamide, benzodiazepine, surgery, levetiracetam, carbamazepine, oxcarbazepine, lacosamide, perampanel, clonazepam, phenobarbial, pregabalin, gabapentin, rufinamide, CBD (e.g., Epidiolex), clobazam, and felbamate. Also, all patients who were using THC oral dosages were using products that included no CBD or products that included CBD in doses well below the therapeutic dose for Epidiolex.
THC Treatment for the 82 adult patients varied. Many of the patients smoked marijuana, so the dosage and/or timing of the dosage was unknown. Because CBD is delivered at sub-therapeutic levels when marijuana is smoked, it is acceptable to attribute any therapeutic effect to THC. The label for the CBD drug Epidiolex includes dosages starting at 5 mg/kg daily for all indications, and increasing to maintenance doses of 10 mg/kg or 20 mg/kg for Lennox-Gestault Syndrome and Dravet Syndrome, and increasing to maintenance doses of 25 mg/kg per day for Tuberous Sclerosis Complex. When 1 gram of cannabis is smoked, it delivers CBD to the lungs in doses well below the therapeutic dose levels prescribed for Epidiolex. Some other patients took unknown dosages of THC orally.

[4] = system: seizures / EEG abnormalities in human patient; test: Example 8 pediatric patient with atonic seizures, myoclonic seizures and Doose syndrome (24 hour EEG, seizures)
Experimental: They had continued to experience several seizures per day of all types despite multiple combination regimens of prescription anti-seizure medications and a trial of THC-A transdermal patch and CBD (Charlotte's Web) oral tincture and CBD transdermal patches up until the day they were first evaluated for cannabinoid treatment (age 4.5 on Mar. 8, 2016). […] They were then prescribed 1 mg oral THC tincture three times per day. On Mar. 8, 2018, the patient returned for follow-up where it was learned that all cannabinoids had been discontinued. […] The THC-A transdermal patch was restarted at 1.875 mg/day with a reduction in EEG abnormalities to 400/24 hours. Oral THC 2.5 mg BID was then restarted with a further reduction in EEG abnormalities to 20/24 hours. […] Due to the significant reduction in brain pre-seizure activity after restarting THC and concerns that there are effective dosage variations among transdermal products, the patient was then prescribed oral THC 2.5 mg BID which they continue to take.

[5] = system: GTC seizures in human patient; test: Example 2 human patient, Dravet syndrome
Experimental: A patient first started having seizures and was subsequently diagnosed with Dravet syndrome. Initially, they were having clusters of 2 GTC seizures a day for 2 days occurring about every 2 weeks. Keppra was ineffective as were other combinations of anti-epileptic drugs. Several different combinations were tried and by the time they were first seen for evaluation for cannabinoid treatment on Aug. 7, 2014, they were taking Depakote 125 mg BID, Clonazepam 0.5 mg TID, and Versed/Diastat as needed for rescue but was still having clusters of GTC seizures every 2 weeks. The patient had started a CBD product on Jul. 3, 2014 (product analysis: 11.2 mg CBD/gm with 0.38 mg THC/gm at a dose of 0.7 mL TID (unknown concentration per mL), but seizures still were occurring irregularly—primarily GTC occurring in clusters of 1-2 per day every two weeks, rare atonic, and occasional eye-flutters.

[6] = smoking cannabis during the day and 12.5 mg of THC orally at bedtime
[7] = 14 adult patients who had never taken THC prior to first visit

CCCCCc1cc(O)c2c(c1)OC(C)(C)[C@@H]1CCC(C)=C[C@@H]21 [THC, Delta-9-tetrahydrocannabinol]
seizures after resuming regimen ([1]; cannabis smoking during the day and THC cannabis extract orally at night): the seizures stopped | seizure control ([1]; inhaled and orally administered THC cannabis products, no anti-epileptic drugs): well controlled | seizure status [1, 6]: had no seizures | seizure-free period [1, 6]: 4 years | seizure status ([2]; 20 milligrams THC cannabis extract liquid orally in the morning and 5 mg THC content pill in the evening): remained seizure free | seizure status ([2]; inhaled 16 mg cannabis wax in the morning and oral 20 milligrams THC cannabis extract liquid at night): seizure free | GTC seizure outcome, individual pediatric patient ([3]; 1.8 mg THC transdermal patch daily+2.5 mg oral THC at bedtime, 5 mg CBD BID, 63.3 kg): 50% reduction in GTC seizure rates in a one-year period following THC treatment | GTC seizure outcome, individual pediatric patient ([3]; 2-3 mg THC+30 mg CBD orally, BID, 17.3 kg): no GTC seizures in a one-year period following THC treatment | GTC seizure outcome, individual pediatric patient ([3]; 5-10 mg THC+10-20 mg CBD orally, daily at bedtime, 34.1 kg): no GTC seizures in a one-year period following THC treatment | adverse effects ([3]; 12 children): none experienced adverse effects | 1 YR Seizure Remission Rate [3, 7]: 36% | Responder Rate (at least 50% reduction in GTC seizure frequency over one year) [3, 7]: 71% | Adverse Events ([3]; 82 adult patients): 2% (2/82) | THC-related adverse effects ([3]; 82 adults treated with THC (sleepiness; reduced mental clarity)): only two patients experienced THC-related adverse effects | Increase in 1 YR Seizure Remission Rate over expected ([3]; Adult, calculated using the 29% (2/7) remission rate): ~**5.8X | GTC seizure outcome, individual pediatric patient ([3]; GTCs and cerebral palsy, CBD 20 mg with 6% THC (1.2 mg) per day orally): resolution of all GTC seizure activity | Adverse Events ([3]; Pediatric patients (0/13)): 0% (0/13) | Increase in 1 YR Seizure Remission Rate over expected ([3]; Pediatric, calculated using the 37.5% (3/8) remission rate): ~***7.5X | effect as rescue treatment, individual pediatric patient ([3]; THC (only), 10 mg/mL, 1-3 mg THC as rescue): complete resolution of seizures | patients with 50% reduction in GTC seizure rates and no GTC seizures in a one-year period following THC treatment ([3]; of 34 adult patients): 15 patients | patients with 50% reduction in GTC seizure rates but not seizure free for a one-year period following THC treatment ([3]; of 34 adult patients): 9 patients | patients without 50% reduction in GTC seizure rates and not seizure free for a one-year period following THC treatment ([3]; of 34 adult patients): 10 patients | THC-related adverse event ([3]; 2-3 mg THC and 38 mg CBD orally TDD): sleepiness | THC-related adverse event ([3]; unknown amounts of THC orally): mental unclarity | GTC seizure outcome, individual pediatric patient ([3]; same patient, 60-70 mg THC orally TDD in 2 divided doses): continued seizure remission | GTC seizure outcome, individual pediatric patients ([3]; two patients, 4-12 mg THC TDD): no GTC seizures in a one-year period following THC treatment and 50% reduction in GTC seizure rate in a one-year period following THC treatment | EEG abnormalities ([4]; Oral THC 2.5 mg BID restarted after THC-A patch): 20 /24 hours | observable seizures ([4]; Oral THC 2.5 mg BID with THC-A patch): no observable seizures | cognitive function ([5]; 20 mg CBD+20 mg THC TID regimen): significantly better | seizure-free duration ([5]; Depakote+Onfi+stiripentol+5 mg THC HS): 15 months | seizures after THC added back ([5]; THC 5 mg HS, CBD removed): improvement in the number and severity of all seizure types | behavioral effect when used as rescue medication ([5]; THC applied to the oral mucosa): no behavioral compromise | termination of seizures as rescue medication ([5]; THC applied to the oral mucosa, 6 non-convulsive seizures): rapidly terminated | seizures when THC was dropped from the regimen ([5]; patient not receiving THC, Apr. 25 to Dec. 3, 2017): frequency and severity of all seizure types increased | effect as rescue medication ([5]; two drops THC to gums): rapid effect
